# Measured values reported in PubChem BioAssay (NCI).
#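 The compound was tested at five concentrations on cells cultured in 96-well plates, with a 48-hour exposure period. At the GI50, growth is halved. TGI marks complete inhibition of growth.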
# What was measured:
# Assay in all cases: inhibition of tumour cell growth, NCI panel, 48 h
# SK-OV-3 ovarian = system: SK-OV-3 ovarian
# DU-145 prostate = system: DU-145 prostate
# SNB-75 CNS = system: SNB-75 CNS
# UO-31 renal = system: UO-31 renal
# RXF 393 renal = system: RXF 393 renal
# SW-620 colon = system: SW-620 colon
# SK-MEL-5 melanoma = system: SK-MEL-5 melanoma
# KM12 colon = system: KM12 colon
# SNB-19 CNS = system: SNB-19 CNS
# K-562 leukemia = system: K-562 leukemia
# M14 melanoma = system: M14 melanoma
# U251 CNS = system: U251 CNS
# 786-0 renal = system: 786-0 renal
# CAKI-1 renal = system: CAKI-1 renal
# OVCAR-8 ovarian = system: OVCAR-8 ovarian
# CCRF-CEM leukemia = system: CCRF-CEM leukemia
# UACC-257 melanoma = system: UACC-257 melanoma
# MDA-N = system: MDA-N
Compound,TGI (SK-OV-3 ovarian) [µM],TGI (DU-145 prostate) [µM],TGI (SNB-75 CNS) [µM],TGI (UO-31 renal) [µM],TGI (RXF 393 renal) [µM],TGI (SW-620 colon) [µM],TGI (SK-MEL-5 melanoma) [µM],TGI (KM12 colon) [µM],TGI (SNB-19 CNS) [µM],TGI (K-562 leukemia) [µM],TGI (M14 melanoma) [µM],TGI (U251 CNS) [µM],TGI (786-0 renal) [µM],TGI (CAKI-1 renal) [µM],GI50 (SNB-75 CNS) [µM],TGI (OVCAR-8 ovarian) [µM],GI50 (SK-MEL-5 melanoma) [µM],TGI (CCRF-CEM leukemia) [µM],TGI (UACC-257 melanoma) [µM],TGI (MDA-N) [µM]
CCC(O)c1ccc(N=Cc2ccccc2O)cc1 (centres undefined),> 100,> 100,> 100,> 100,> 100,> 100,> 100,> 100,> 100,> 100,> 100,> 100,> 100,> 100,–,–,–,–,–,–
O=C(OC/C=C1C=C(OC(=O)c2ccccc2)/C(=N/N(C(=O)c2ccccc2)c2ccccc2)O\1)c1ccccc1,23.6,–,37.9,0.517,5.58,22.5,35.5,22.8,23,11.8,18.7,19.3,2.95,13.7,18.5,23.6,19,2.1,19.7,–
NC1Cc2ccccc2OC1=O (centres undefined),> 100,> 100,> 100,> 100,> 100,> 100,> 100,> 100,> 100,> 100,> 100,> 100,> 100,> 100,–,> 100,–,–,> 100,–
COc1ccccc1NCc1cccc2c(=O)c3ccc(Cl)cc3oc12,> 100,–,> 100,> 100,–,> 100,> 100,> 100,> 100,> 100,> 100,> 100,> 100,> 100,–,> 100,–,> 100,> 100,> 100
Cc1ccc(S(=O)(=O)N/N=C2/CC3CCC4CC2CC34)cc1 (centres undefined),> 100,> 100,> 100,> 100,–,> 100,> 100,> 100,> 100,> 100,> 100,> 100,> 100,> 100,–,> 100,–,> 100,> 100,> 100
O=c1[nH]c(=O)n(C2OC(CO)C(O)C2O)cc1OCC(F)(F)F (centres undefined),> 100,–,> 100,> 100,> 100,> 100,> 100,> 100,> 100,> 100,> 100,> 100,> 100,> 100,–,> 100,–,> 100,> 100,–
CCn1c2c(c3ccccc31)C(c1ccccc1)CC1C(=O)N(c3ccccc3)C(=O)C21 (centres undefined),> 100,–,59.6,> 100,–,> 100,> 100,> 100,> 100,> 100,> 100,–,> 100,> 100,–,> 100,–,> 100,> 100,–
COc1ccc2[nH]c3c(C)cc([N+](=O)[O-])c(C)c3c2c1,78.3,–,86.1,71,41.9,> 100,88.4,45.4,> 100,44.3,53.2,97.8,> 100,> 100,–,79.9,–,56.4,> 100,–
CC(CN(C)C)C(=O)c1ccccc1 (centres undefined),–,–,> 100,> 31.6,> 54.2,27,> 100,> 51.5,> 100,> 100,> 55,> 100,> 52.3,15.6,–,> 91.2,–,27.2,> 84.7,–
CCOC(=O)c1c(N2CCCC2)ncn(C)c1=S,–,> 100,–,> 100,> 100,> 100,> 100,> 100,> 100,> 100,> 100,> 100,> 100,> 100,–,> 100,–,> 100,> 100,–
Cc1ccc2oc3c(c(Br)c(Br)n3C)c(=O)c2c1,–,> 100,–,27.5,31.4,> 100,> 100,> 100,36,> 100,> 100,35.8,30.3,63.8,–,31.9,–,> 100,> 100,–
O=c1[nH]c(=O)n(C2CC(O)C(CO)O2)cc1C#Cc1ccc(F)cc1 (centres undefined),> 100,–,> 100,> 100,–,> 100,> 100,> 100,> 100,> 100,> 100,> 100,> 100,> 100,–,> 100,–,> 100,> 100,–
c1ccc2c(c1)ccn1ccc3c4ccccc4nc-3c21,2.9,1.72,2.15,2.24,2.39,2.34,1.71,1.92,3.14,0.567,1.51,1.47,1.31,2.09,–,1.78,–,1.43,2.92,–
CCCN1C(=O)/C(=C\c2ccc(OC)c(OC)c2)SC1=Nc1ccccc1,> 100,–,–,> 100,–,> 100,> 100,> 100,> 100,> 100,> 100,> 100,> 100,> 100,–,> 100,–,> 100,> 100,> 100
